Experimental data from US20260022142A1, “MACROCYCLIC IMMUNOMODULATORS” (Bristol-Myers Squibb Company, priority 2022, published 2026).
pIC50: −log10 of the molar value. Bridge positions count the residues as written; N and C are the ends. Square brackets hold non-standard residues; d marks the D form. Peptide text beside a SMILES is read from it. * marks the point of attachment. ξ: configuration not given here. Bip = N[C@@H](Cc1ccc(-c2ccccc2)cc1)C(=O)O; Phe(3-Me) = Cc1cccc(C[C@H](N)C(=O)O)c1; hArg = N=C(N)NCCCC[C@H](N)C(=O)O; Cha = N[C@@H](CC1CCCCC1)C(=O)O; aThr = C[C@H](O)[C@H](N)C(=O)O; Thr(3ξ) = CC(O)[C@H](N)C(=O)O; 12Ado = NCCCCCCCCCCCC(=O)O; Carboxymethyl = O=C(O)C*; Orn = NCCC[C@H](N)C(=O)O; Aun = NCCCCCCCCCCC(=O)O; Dab = NCC[C@H](N)C(=O)O; Dap = NC[C@H](N)C(=O)O; AEEA = NCCOCCOCC(=O)O

Biological target: T1, PD-1/PD-L1 interaction (PE-labeled human PD-L1-Ig binding to Jurkat cell line over-expressing human PD-1) (Homo sapiens, UniProt Q15116)
T1 construct: expressed in transfected cells; host or cells: Jurkat
Experiment: Jurkat-PD-1 Cell Binding High-Content Screening Assay (CBA)
Type: cell-based
Conditions: Jurkat cell line over-expressing human PD-1; PE-labeled PD-L1-Ig 20 nM final; read-out: Jurkat hPD1-PDL1 IC50
Method in brief: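 Binding of fluorescent PD-L1-Ig (phycoerythrin on Ig tag, 20 nM final, 1 h) measured by high-content imaging of fixed, Hoechst-counterstained Jurkat-hPD-1 cells. Compound added 2 h at 37° C beforehand, in DMEM with 10% fetal calf serum.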

T1 sequence (Q15116 25-288): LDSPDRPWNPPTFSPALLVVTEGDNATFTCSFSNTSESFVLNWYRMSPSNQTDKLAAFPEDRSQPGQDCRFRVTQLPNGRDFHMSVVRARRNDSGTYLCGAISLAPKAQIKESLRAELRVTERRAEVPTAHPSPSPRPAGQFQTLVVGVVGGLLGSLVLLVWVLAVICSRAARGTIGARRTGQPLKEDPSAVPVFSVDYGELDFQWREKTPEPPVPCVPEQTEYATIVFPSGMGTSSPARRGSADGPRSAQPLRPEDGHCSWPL

SMILES | pIC50
CC(C)C[C@H]1NC(=O)[C@H](CCCN)NC(=O)[C@H](C(C)C)NC(=O)[C@H](Cc2ccc(-c3ccccc3)cc2)NC(=O)[C@H](C(C)C)NC(=O)[C@H](Cc2c[nH]c3ccccc23)NC(=O)[C@H](CC(=O)O)NC(=O)[C@H](Cc2ccc(OCC(=O)O)cc2)NC(=O)[C@H](CCCCNC(=N)N)NC(=O)CSC[C@@H](C(=O)N[C@@H](CN)C(=O)NCCCCCCCCCCC(=O)O)NC(=O)[C@H](C(C)O)NC(=O)[C@H](C(C)C)NC(=O)[C@H](CC2CCCCC2)NC(=O)[C@H](Cc2cnc[nH]2)NC1=O (stereo partly drawn) [Compound 3152] ({CH2CO}-[hArg]Y(Carboxymethyl)DWV[Bip]V[Orn][dL]H[Cha]V[Thr(3ξ)]C[Dap][Aun]-OH; thioether N-14) | 7.33
CC(C)C[C@H]1NC(=O)[C@H](CCCN)NC(=O)[C@H](C(C)C)NC(=O)[C@H](Cc2ccc(-c3ccccc3)cc2)NC(=O)[C@H](C(C)C)NC(=O)[C@H](Cc2c[nH]c3ccccc23)NC(=O)[C@H](CC(=O)O)NC(=O)[C@H](Cc2ccc(OCC(=O)O)cc2)NC(=O)[C@H](CCCCNC(=N)N)NC(=O)CSC[C@@H](C(=O)NCCOCCOCC(=O)N[C@@H](CCCN)C(=O)NCCCCCCCCCCCC(=O)O)NC(=O)[C@H](CO)NC(=O)[C@H](C(C)C)NC(=O)[C@H](CC2CCCCC2)NC(=O)[C@H](CCN)NC1=O [Compound 3153] ({CH2CO}-[hArg]Y(Carboxymethyl)DWV[Bip]V[Orn][dL][Dab][Cha]VSC[AEEA][Orn][12Ado]-OH; thioether N-14) | 7.92
CC(C)C[C@H]1NC(=O)[C@H](CCCN)NC(=O)[C@H](C(C)C)NC(=O)[C@H](Cc2ccc(-c3ccccc3)cc2)NC(=O)[C@H](C(C)C)NC(=O)[C@H](Cc2c[nH]c3ccccc23)NC(=O)[C@H](CC(=O)O)NC(=O)[C@H](Cc2ccc(OCC(=O)O)cc2)NC(=O)[C@H](CCCCNC(=N)N)NC(=O)CSC[C@@H](C(=O)NCCOCCOCC(=O)N[C@@H](CCCCN)C(=O)NCCCCCCCCCCCC(=O)O)NC(=O)[C@H](CO)NC(=O)[C@H](C(C)C)NC(=O)[C@H](CC2CCCCC2)NC(=O)[C@H](CCN)NC1=O [Compound 3154] ({CH2CO}-[hArg]Y(Carboxymethyl)DWV[Bip]V[Orn][dL][Dab][Cha]VSC[AEEA]K[12Ado]-OH; thioether N-14) | 7.83
CC(C)C[C@H]1NC(=O)[C@H](CCCN)NC(=O)[C@H](C(C)C)NC(=O)[C@H](Cc2ccc(-c3ccccc3)cc2)NC(=O)[C@H](C(C)C)NC(=O)[C@H](Cc2c[nH]c3ccccc23)NC(=O)[C@H](CC(=O)O)NC(=O)[C@H](Cc2ccc(OCC(=O)O)cc2)NC(=O)[C@H](CCCCNC(=N)N)NC(=O)CSC[C@@H](C(=O)N[C@@H](CCCCN)C(=O)NCCCCCCCCCCCC(=O)O)NC(=O)[C@H](CO)NC(=O)[C@H](C(C)C)NC(=O)[C@H](CC2CCCCC2)NC(=O)[C@H](Cc2cnc[nH]2)NC1=O [Compound 3155] ({CH2CO}-[hArg]Y(Carboxymethyl)DWV[Bip]V[Orn][dL]H[Cha]VSCK[12Ado]-OH; thioether N-14) | 7.35
CC(C)C[C@H]1NC(=O)[C@H](CCCN)NC(=O)[C@H](C(C)C)NC(=O)[C@H](Cc2ccc(-c3ccccc3)cc2)NC(=O)[C@H](C(C)C)NC(=O)[C@H](Cc2c[nH]c3ccccc23)NC(=O)[C@H](CC(=O)O)NC(=O)[C@H](Cc2ccc(OCC(=O)O)cc2)NC(=O)[C@H](CCCCNC(=N)N)NC(=O)CSC[C@@H](C(=O)N[C@@H](CCCN)C(=O)NCCCCCCCCCCCC(=O)O)NC(=O)[C@H](CO)NC(=O)[C@H](C(C)C)NC(=O)[C@H](CC2CCCCC2)NC(=O)[C@H](CC(N)=O)NC1=O [Compound 3156] ({CH2CO}-[hArg]Y(Carboxymethyl)DWV[Bip]V[Orn][dL]N[Cha]VSC[Orn][12Ado]-OH; thioether N-14) | 7.46
CC(C)C[C@H]1NC(=O)[C@H](CCCN)NC(=O)[C@H](C(C)C)NC(=O)[C@H](Cc2ccc(-c3ccccc3)cc2)NC(=O)[C@H](C(C)C)NC(=O)[C@H](Cc2c[nH]c3ccccc23)NC(=O)[C@H](CC(=O)O)NC(=O)[C@H](CCCCNC(=N)N)NC(=O)[C@H](Cc2ccc(OCC(=O)O)cc2)NC(=O)CSC[C@@H](C(=O)NCCOCCOCC(=O)N[C@@H](CCCCN)C(=O)NCCCCCCCCCCCC(=O)O)NC(=O)[C@H](CCN)NC(=O)[C@H](C(C)C)NC(=O)[C@H](CC2CCCCC2)NC(=O)[C@H](Cc2cnc[nH]2)NC1=O [Compound 3158] ({CH2CO}-Y(Carboxymethyl)[hArg]DWV[Bip]V[Orn][dL]H[Cha]V[Dab]C[AEEA]K[12Ado]-OH; thioether N-14) | 6.97
CC(C)C[C@H]1NC(=O)[C@H](CCCN)NC(=O)[C@H](C(C)C)NC(=O)[C@H](Cc2ccc(-c3ccccc3)cc2)NC(=O)[C@H](C(C)C)NC(=O)[C@H](Cc2c[nH]c3ccccc23)NC(=O)[C@H](CC(=O)O)NC(=O)[C@H](Cc2ccc(OCC(=O)O)cc2)NC(=O)[C@H](CCCCNC(=N)N)NC(=O)CSC[C@@H](C(=O)N[C@@H](CCCN)C(=O)NCCCCCCCCCCC(=O)O)NC(=O)[C@H](C(C)O)NC(=O)[C@H](C(C)C)NC(=O)[C@H](CC2CCCCC2)NC(=O)[C@H](Cc2cnc[nH]2)NC1=O (stereo partly drawn) [Compound 3159] ({CH2CO}-[hArg]Y(Carboxymethyl)DWV[Bip]V[Orn][dL]H[Cha]V[Thr(3ξ)]C[Orn][Aun]-OH; thioether N-14) | 7.37
Cc1cccc(C[C@@H]2NC(=O)[C@H](CC(=O)O)NC(=O)[C@H](Cc3ccc(OCC(=O)O)cc3)NC(=O)[C@H](CN)NC(=O)CSC[C@@H](C(=O)N[C@@H](CCCCN)C(=O)NCCCCCCCCCCC(=O)O)NC(=O)[C@H](C(C)O)NC(=O)[C@H](C(C)C)NC(=O)[C@H](CC3CCCCC3)NC(=O)[C@H](Cc3cnc[nH]3)NC(=O)[C@@H](CC(C)C)NC(=O)[C@H](CCCN)NC(=O)[C@H](CCC(=O)O)NC(=O)[C@H](Cc3ccc(-c4ccccc4)cc3)NC(=O)[C@H](C(C)C)NC2=O)c1 (stereo partly drawn) [Compound 3160] ({CH2CO}-[Dap]Y(Carboxymethyl)D[Phe(3-Me)]V[Bip]E[Orn][dL]H[Cha]V[Thr(3ξ)]CK[Aun]-OH; thioether N-14) | 7.43

The next lines start with the values.

pIC50 | SMILES
7.41 | Cc1cccc(C[C@@H]2NC(=O)[C@H](CC(=O)O)NC(=O)[C@H](Cc3ccc(OCC(=O)O)cc3)NC(=O)[C@H](CCCCNC(=N)N)NC(=O)CSC[C@@H](C(=O)N[C@@H](CCCCN)C(=O)NCCCCCCCCCCC(=O)O)NC(=O)[C@H](C(C)O)NC(=O)[C@H](C(C)C)NC(=O)[C@H](CC3CCCCC3)NC(=O)[C@H](Cc3cnc[nH]3)NC(=O)[C@@H](CC(C)C)NC(=O)[C@H](CCCN)NC(=O)[C@H](CCC(=O)O)NC(=O)[C@H](Cc3ccc(-c4ccccc4)cc3)NC(=O)[C@H](C(C)C)NC2=O)c1 (stereo partly drawn) [Compound 3161] ({CH2CO}-[hArg]Y(Carboxymethyl)D[Phe(3-Me)]V[Bip]E[Orn][dL]H[Cha]V[Thr(3ξ)]CK[Aun]-OH; thioether N-14)
7.58 | Cc1cccc(C[C@@H]2NC(=O)[C@H](CC(=O)O)NC(=O)[C@H](Cc3ccc(OCC(=O)O)cc3)NC(=O)[C@H](CCCCNC(=N)N)NC(=O)CSC[C@@H](C(=O)NCCOCCOCC(=O)N[C@@H](CCCCN)C(=O)NCCCCCCCCCCC(=O)O)NC(=O)[C@H]([C@H](C)O)NC(=O)[C@H](C(C)C)NC(=O)[C@H](CC3CCCCC3)NC(=O)[C@H](CC(N)=O)NC(=O)[C@@H](CC(C)C)NC(=O)[C@H](CCCN)NC(=O)[C@H](C(C)C)NC(=O)[C@H](Cc3ccc(-c4ccccc4)cc3)NC(=O)[C@H](C(C)C)NC2=O)c1 [Compound 3162] ({CH2CO}-[hArg]Y(Carboxymethyl)D[Phe(3-Me)]V[Bip]V[Orn][dL]N[Cha]V[aThr]C[AEEA]K[Aun]-OH; thioether N-14)
7.65 | CC(C)C[C@H]1NC(=O)[C@H](CCCN)NC(=O)[C@H](C(C)C)NC(=O)[C@H](Cc2ccc(-c3ccccc3)cc2)NC(=O)[C@H](C(C)C)NC(=O)[C@H](Cc2c[nH]c3ccccc23)NC(=O)[C@H](CC(=O)O)NC(=O)[C@H](Cc2ccc(OCC(=O)O)cc2)NC(=O)[C@H](CCCCNC(=N)N)NC(=O)CSC[C@@H](C(=O)NCCOCCOCC(=O)N[C@@H](CCCCN)C(=O)NCCCCCCCCCCC(=O)O)NC(=O)[C@H]([C@H](C)O)NC(=O)[C@H](C(C)C)NC(=O)[C@H](CC2CCCCC2)NC(=O)[C@H](CC(N)=O)NC1=O [Compound 3163] ({CH2CO}-[hArg]Y(Carboxymethyl)DWV[Bip]V[Orn][dL]N[Cha]V[aThr]C[AEEA]K[Aun]-OH; thioether N-14)
7.52 | CC(C)C[C@H]1NC(=O)[C@H](CCCN)NC(=O)[C@H](C(C)C)NC(=O)[C@H](Cc2ccc(-c3ccccc3)cc2)NC(=O)[C@H](C(C)C)NC(=O)[C@H](Cc2c[nH]c3ccccc23)NC(=O)[C@H](CC(=O)O)NC(=O)[C@H](Cc2ccc(OCC(=O)O)cc2)NC(=O)[C@H](CN)NC(=O)CSC[C@@H](C(=O)NCCOCCOCC(=O)N[C@@H](CCCCN)C(=O)NCCCCCCCCCCC(=O)O)NC(=O)[C@H]([C@H](C)O)NC(=O)[C@H](C(C)C)NC(=O)[C@H](CC2CCCCC2)NC(=O)[C@H](CC(N)=O)NC1=O [Compound 3164] ({CH2CO}-[Dap]Y(Carboxymethyl)DWV[Bip]V[Orn][dL]N[Cha]V[aThr]C[AEEA]K[Aun]-OH; thioether N-14)
7.51 | CC(C)C[C@H]1NC(=O)[C@H](CCCN)NC(=O)[C@H](C(C)C)NC(=O)[C@H](Cc2ccc(-c3ccccc3)cc2)NC(=O)[C@H](C(C)C)NC(=O)[C@H](Cc2c[nH]c3ccccc23)NC(=O)[C@H](CC(=O)O)NC(=O)[C@H](Cc2ccc(OCC(=O)O)cc2)NC(=O)[C@H](CCCCNC(=N)N)NC(=O)CSC[C@@H](C(=O)NCCOCCOCC(=O)N[C@@H](CCCCN)C(=O)NCCCCCCCCCCCC(=O)O)NC(=O)[C@H](C(C)O)NC(=O)[C@H](C(C)C)NC(=O)[C@H](CC2CCCCC2)NC(=O)[C@H](CCN)NC1=O (stereo partly drawn) [Compound 3165] ({CH2CO}-[hArg]Y(Carboxymethyl)DWV[Bip]V[Orn][dL][Dab][Cha]V[Thr(3ξ)]C[AEEA]K[12Ado]-OH; thioether N-14)
